# ChEMBL document CHEMBL5537193, “Multitargeting HDAC Inhibitors Containing a RAS/RAF Protein Interfering Unit” (J Med Chem, 2024)
# Active and inactive are the calls of the source. No cut-off for these calls is given here.
# Legend:
# [1] = MRT (0 to t) in Sprague-Dawley rat at 15 mg/kg, ip measured after 24 hrs by LC-MS/MS analysis; assay type: ADME, organism-based; conditions: in vivo
# [2] = AUC (0 to t) in Sprague-Dawley rat at 15 mg/kg, ip measured after 24 hrs by LC-MS/MS analysis; assay type: ADME, organism-based; conditions: in vivo
# A549 = assay: cells; conditions: Homo sapiens, A549, 72 h
# Description: Cytotoxicity against human A549 cells assessed as inhibition of cell growth incubated for 72 hrs by MTT assay
# MCF7 = assay: cells; conditions: Homo sapiens, MCF7, 72 h
# Description: Cytotoxicity against human MCF7 cells assessed as inhibition of cell growth incubated for 72 hrs by MTT assay
# HT-29 [3] = assay: Antitumor activity against human HT-29 cells xenografted in BALB/c nude mouse assessed as tumor growth inhibition at 15 mg/kg, ip administered once a day for 24 days relative to control; assay type: functional; conditions: HT-29, 576 h, time 24 day, read-out: TGI
# Mus musculus [4] = assay: In vivo inhibition of HDAC3 in BALB/c mouse xenografted with human HT-29 cells assessed as induction of histone H3 acetylation administered intraperitoneally once every 2 days for 12 times and measured after 24 days by Western blot analysis; assay type: functional; conditions: dose 7.5-15 mg/kg, route ip, time 24.0 day
# Mus musculus [5] = assay: In vivo inhibition of MAPK signaling pathway in BALB/c mouse xenografted with human HT-29 cells assessed as inhibition of MEK phosphorylation administered intraperitoneally once every 2 days for 12 times and measured after 24 days by Western blot analysis; assay type: functional; conditions: dose 7.5-15 mg/kg, route ip, time 24.0 day
# PANC-1 [6] = assay: Induction of apoptosis in human PANC-1 cells assessed as increase in Cytochrome C expression level at 2 uM incubated for 24 hrs by Western blot analysis; assay type: functional, cell-based
# [7] = Metabolic stability in rat liver microsomes assessed as half-life at 1 uM measured upto 40 mins by LC-MS/MS analysis; assay type: ADME, Microsome
# HT-29 [8] = assay: Antitumor activity against human HT-29 xenografted in BALB/c nude mouse assessed as tumor growth inhibition at 7.5 mg/kg, ip administered once every 2 days for 12 times for 24 days relative to control; assay type: functional; conditions: HT-29, 576 h, time 24 day, read-out: TGI
# HT-29 [9] = assay: Antitumor activity against human HT-29 cells xenografted in BALB/c nude mouse assessed as tumor growth inhibition at 7.5 mg/kg, ip administered once a day for 24 days relative to control; assay type: functional; conditions: HT-29, 576 h, time 24 day, read-out: TGI
# [10] = Toxicity in BALB/c nude mouse xenografted with human HT-29 cells assessed as change in lung histopathology at 10 to 15 mg/kg, ip administered once daily for 24 days by H&E staining based analysis; assay type: organism-based; conditions: in vivo, 576 h, dose 10-15 mg/kg, time 24 day
# HT-29 [11] = assay: Inhibition of MAPK signaling pathway in human HT-29 cells assessed as inhibition of MEK phosphorylation at 2 uM incubated for 24 hrs by Western blot analysis; assay type: cell-based
# [12] = Toxicity in BALB/c nude mouse xenografted with human HT-29 cells assessed as change in body weight at 7.5 to 15 mg/kg, ip administered once every 2 days for 12 times for 24 days; assay type: organism-based; conditions: in vivo, 576 h, dose 7.5-15 mg/kg, time 24 day
# PANC-1 [13] = assay: Induction of apoptosis in human PANC-1 cells assessed as increase in Bax expression at 2 uM incubated for 24 hrs by Western blot analysis; assay type: functional, cell-based
# [14] = Metabolic stability in human liver microsomes assessed as half-life at 1 uM measured upto 40 mins by LC-MS/MS analysis; assay type: ADME, Microsome
# HT-29 [15] = assay: Effect on RAS protein expression in human HT-29 cells at 2 uM incubated for 24 hrs by Western blot analysis; assay type: functional, cell-based
# [16] = Toxicity in BALB/c nude mouse xenografted with human HT-29 cells assessed as change in liver histopathology at 10 to 15 mg/kg, ip administered once daily for 24 days by H&E staining based analysis; assay type: organism-based; conditions: in vivo, 576 h, dose 10-15 mg/kg, time 24 day
# SGC-7901 = assay: cells; conditions: Homo sapiens, SGC-7901, 72 h
# Description: Cytotoxicity against human SGC-7901 cells assessed as inhibition of cell growth incubated for 72 hrs by MTT assay
# PANC-1 [17] = assay: Induction of apoptosis in human PANC-1 cells assessed as increase in cleaved caspase-3 expression level at 2 uM incubated for 24 hrs by Western blot analysis; assay type: functional, cell-based
# [18] = Metabolic stability in rat liver microsomes assessed as intrinsic clearance at 1 uM measured upto 40 mins by LC-MS/MS analysis; assay type: ADME, Microsome; conditions: read-out: CLH
# PANC-1 [19] = assay: cells; conditions: Homo sapiens, PANC-1, 72 h
# Description: Cytotoxicity against human PANC-1 cells assessed as inhibition of cell growth incubated for 72 hrs by MTT assay
# PANC-1 [20] = assay: Induction of apoptosis in human PANC-1 cells assessed as increase in cleaved caspase-9 expression level at 2 uM incubated for 24 hrs by Western blot analysis; assay type: functional, cell-based
# PANC-1 [21] = assay: Effect on Histone H3 expression in human PANC-1 cells at 2 uM incubated for 24 hrs by Western blot analysis; assay type: functional, cell-based
# MV4-11 = assay: cells; conditions: Homo sapiens, MV4-11, 72 h
# Description: Cytotoxicity against human MV4-11 cells assessed as inhibition of cell growth incubated for 72 hrs by MTT assay
# [22] = Tmax in Sprague-Dawley rat at 15 mg/kg, ip measured after 24 hrs by LC-MS/MS analysis; assay type: ADME, organism-based; conditions: in vivo
# HT-29 [23] = assay: Effect on ERK1/2 protein expression in human HT-29 cells at 2 uM incubated for 24 hrs by Western blot analysis; assay type: functional, cell-based
# [24] = Toxicity in BALB/c nude mouse xenografted with human HT-29 cells assessed as change in body weight at 7.5 to 15 mg/kg, ip administered once daily for 24 days; assay type: organism-based; conditions: in vivo, 576 h, dose 7.5-15 mg/kg, time 24 day
# HT-29 [25] = assay: Effect on Histone H3 expression in human HT-29 cells at 2 uM incubated for 24 hrs by Western blot analysis; assay type: functional, cell-based
# HT-29 [26] = assay: cells; conditions: Homo sapiens, HT-29, 72 h
# Description: Cytotoxicity against human HT-29 cells assessed as inhibition of cell growth incubated for 72 hrs by MTT assay
# PANC-1 [27] = assay: Effect on ERK1/2 protein expression in human PANC-1 cells at 2 uM incubated for 24 hrs by Western blot analysis; assay type: functional, cell-based
# PANC-1 [28] = assay: Induction of apoptosis in human PANC-1 cells assessed as apoptotic cells at 2 uM incubated for 24 hrs by flow cytometric analysis relative to control; assay type: functional
# [29] = target: Serine/threonine-protein kinase PLK1 (Homo sapiens, UniProt P53350); assay: Inhibition of PLK1 (unknown origin) at 10 uM relative to control
# [30] = Toxicity in BALB/c nude mouse xenografted with human HT-29 cells assessed as change in heart histopathology at 10 to 15 mg/kg, ip administered once daily for 24 days by H&E staining based analysis; assay type: organism-based; conditions: in vivo, 576 h, dose 10-15 mg/kg, time 24 day
# Mus musculus [31] = assay: In vivo inhibition of MAPK signaling pathway in BALB/c mouse xenografted with human HT-29 cells assessed as inhibition of ERK1/2 phosphorylation administered intraperitoneally once every 2 days for 12 times and measured after 24 days by Western blot analysis; assay type: functional; conditions: dose 7.5-15 mg/kg, route ip, time 24.0 day
# HT-29 [32] = assay: Antitumor activity against human HT-29 cells xenografted in BALB/c nude mouse assessed as tumor growth inhibition administered intraperitoneally once a day for 24 days; assay type: functional, cell-based; conditions: route ip, time 24.0 day
# HT-29 [33] = assay: Effect on MEK protein expression in human HT-29 cells at 2 uM incubated for 24 hrs by Western blot analysis; assay type: functional, cell-based
# HepG2 = assay: cells; conditions: Homo sapiens, HepG2, 72 h
# Description: Cytotoxicity against human HepG2 cells assessed as inhibition of cell growth incubated for 72 hrs by MTT assay
# HT-29 [34] = assay: Induction of apoptosis in human HT-29 cells assessed as apoptotic ratio at 2 uM incubated for 24 hrs by flow cytometric analysis; assay type: functional
# Sequence of Serine/threonine-protein kinase PLK1 (P53350 whole entry): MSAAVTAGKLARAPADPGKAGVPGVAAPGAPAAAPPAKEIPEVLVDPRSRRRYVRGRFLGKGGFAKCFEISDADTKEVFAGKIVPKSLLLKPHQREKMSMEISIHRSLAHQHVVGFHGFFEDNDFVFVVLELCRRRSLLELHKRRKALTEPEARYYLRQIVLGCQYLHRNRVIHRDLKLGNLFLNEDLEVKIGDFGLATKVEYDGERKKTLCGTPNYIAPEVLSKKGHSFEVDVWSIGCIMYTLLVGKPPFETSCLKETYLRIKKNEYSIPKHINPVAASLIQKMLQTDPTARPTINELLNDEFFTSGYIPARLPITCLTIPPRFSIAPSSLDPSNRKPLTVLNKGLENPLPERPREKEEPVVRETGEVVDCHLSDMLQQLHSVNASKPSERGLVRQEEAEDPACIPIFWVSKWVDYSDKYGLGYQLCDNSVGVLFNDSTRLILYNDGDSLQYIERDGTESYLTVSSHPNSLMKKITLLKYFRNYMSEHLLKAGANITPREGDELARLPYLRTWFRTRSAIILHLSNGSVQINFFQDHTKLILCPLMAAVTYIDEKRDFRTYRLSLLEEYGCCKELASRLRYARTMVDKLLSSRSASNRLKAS
structure (smiles),measurement,setting,value
COc1cc(OC)c(/C=C/S(=O)(=O)Cc2ccc(OC)c(NCC(=O)NO)c2)c(OC)c1,MRT last at 24 h,[1],80.4 min
same,AUC(0-t) at 24 h,[2],5190 ng·h/mL
same,IC50,A549,90 nM
same,IC50,MCF7,240 nM
same,inhibition in vivo at 15 mg/kg,HT-29 [3],86.7%
same,inhibition,Mus musculus [4],Dose-Dependent Effect
same,inhibition,Mus musculus [5],Dose-Dependent Effect
same,Activity,PANC-1 [6],Active
same,half-life at 1 µM,[7],5.52 min
same,inhibition in vivo at 7.5 mg/kg,HT-29 [8],64.3%
same,inhibition in vivo at 7.5 mg/kg,HT-29 [9],70.1%
same,Activity,[10],Non-Toxic
same,inhibition,HT-29 [11],Active
same,Activity,[12],Non-Toxic
same,Activity,PANC-1 [13],Active
same,half-life at 1 µM,[14],124 min
same,Activity,HT-29 [15],inactive
same,Activity,[16],Non-Toxic
same,IC50,SGC-7901,170 nM
same,Activity,PANC-1 [17],Active
same,CLint scaled at 1 µM,[18],450 mL/min/kg
same,IC50,PANC-1 [19],50 nM
same,Activity,PANC-1 [20],Active
same,Activity,PANC-1 [21],inactive
same,IC50,MV4-11,80 nM
same,Tmax,[22],30 min
same,Activity,HT-29 [23],inactive
same,Activity,[24],Non-Toxic
same,Activity,HT-29 [25],inactive
same,IC50,HT-29 [26],40 nM
same,Activity,PANC-1 [27],inactive
same,Activity,PANC-1 [28],57.4%
same,inhibition,[29],100%
same,Activity,[30],Non-Toxic
same,inhibition,Mus musculus [31],Dose-Dependent Effect
same,TGI,HT-29 [32],Dose-Dependent Effect
same,Activity,HT-29 [33],inactive
same,IC50,HepG2,990 nM
same,Activity,HT-29 [34],51.5%
